Data as given in patent publication US20250213719A1, “MAGNETIC NANOPARTICLES AND METHODS OF DRUG RELEASE” (University of Notre Dame du Lac, priority 2022, published 2025).
“And” between values parts separate entries of the source, which are not always exact repeats. Identical values can stand only once. Like-named read-outs stand apart in the source and are kept apart here.

What was measured:
Type in all cases: cell-based
[1] = system: A2780 ovarian cancer cells; assay: Live/dead cell viability assay; settings: free or released from Dox-MagSiNs by AC magnetic field
Experimental: (§1) The media in each well of the chamber slides was carefully aspirated, and the wells were rinsed twice with 400 μL of 1×PBS. The cells were incubated with Ethidium-homodimer Ill dye and Calcein-AM dye mix at manufacturer recommended concentrations (Life-technologies), and the slides were incubated for 30 minutes in the cell incubator, in the dark. After incubation, the wells were rinsed twice with 400 μL of 1×PBS. Lastly, 300 μL of 4% buffered parafomaldehyde was added to each well, and the slides were taken to be imaged with a NikonU inverted fluorescent microscope with a 10× lens using a standard FITC/RITC green and red fluorescent filter cubes.
(§2) Viable cell populations of treated and untreated control cancer cell lines and treated and untreated normal cell lines were determined at the end of each run using a calcein-AM/propidium iodide assay to determine total cells and viable cell populations. The calcein-AM assay is based on the conversion of the cell permeant non-fluorescent calcein-AM dye to the fluorescent calcein dye by intracellular esterase activity in live cells. […] When PI does gain access to nucleic acids and intercalates, its fluorescence increases dramatically and is therefore used to identify dead cells. Calcein-Am and PI can be used separately or together to assess cellular viability or cell death, respectively.
(§3) In this study, for each sample set (control group or test group), the total number of cells with green fluorescence and the total number of cells with red fluorescence were counted as separate datasets. […] For each sample set, the percent dead-cells and percent live-cells was calculated. The percent live-cells was used as a measure of viability. A paired t-test under the assumption of comparing two-samples with equal variances and a >=0.05 was used to determine the statistical significance of the test-groups in comparison to the control groups.
(§4) A unidirectional magnetic field of 30-50 Gauss and an alternating magnetic field of 100 Hz, 30-50 Gauss were used for these experiments.

HUVEC cells = assay: Live/dead cell viability assay; settings: free or released from Dox-MagSiNs by AC magnetic field, permanent magnet 24 h then AC field 10 h, assay at 48 h
Experimental: as §1, §2, §3, §4

[2] = system: PC-3 prostate cancer cells; assay: Live/dead cell viability assay; settings: 500 nM Dox, free or released from Dox-MagSiNs by AC magnetic field, hydrochloride
Experimental: as §1, §2, §3, §4

[3] = system: MDA-MB-231 triple-negative breast cancer cells; settings: free or released from Dox-MagSiNs by AC magnetic field
Experimental: as §1
Viable cell populations of treated and untreated control cancer cell lines and treated and untreated normal cell lines were determined at the end of each run using a calcein-AM/propidium iodide assay to determine total cells and viable cell populations. […] When PI does gain access to nucleic acids and intercalates, its fluorescence increases dramatically and is therefore used to identify dead cells. […]
In this study, for each sample set (control group or test group), the total number of cells with green fluorescence and the total number of cells with red fluorescence were counted as separate datasets. […] For each sample set, the percent dead-cells and percent live-cells was calculated. […]

COc1cccc2c1C(=O)c1c(O)c3c(c(O)c1C2=O)C[C@@](O)(C(=O)CO)C[C@@H]3O[C@H]1C[C@H](N)[C@H](O)[C@H](C)O1.Cl [Dox·HCl, doxorubicin hydrochloride]
cell death ([1]; 20 nM Dox): > 20%
cell death ([1]; 500 nM Dox, hydrochloride): 83%
cell death ([1]; 500 nM Dox, listed as Dox, hydrochloride): 83% and 80-85%
cell death (HUVEC cells; 20 nM Dox·HCl): 100%
cell death (HUVEC cells; 500 nM Dox·HCl): 100%
cell death [2]: 100%
cell death ([2]; listed as Dox): 100% and > 95%
cell death ([3]; 20 nM Dox): insignificant cell death
cell death ([3]; 500 nM Dox): 4%
